Laboratory results published in US20220378756A1, “ACTIVATING PYRUVATE KINASE R” (FORMA Therapeutics, Inc., priority 2019, published 2022).
“And” between values parts separate entries of the source, which are not always exact repeats. Equal values may be shown once. “Also recorded” adds a separate entry of the source.

Experiments:
[1] = system: estradiol and testosterone levels; assay: Circulating estradiol and testosterone in healthy subjects, 14 days; assay type: in vivo, human; conditions: healthy subjects, 100, 200, 300 mg BID and 400 mg QD for 14 days; days 8, 14, 17
Procedure: Effects on circulating levels of estradiol and testosterone in male and female healthy subjects receiving Compound 1 or placebo for a treatment period of 14 days were evaluated. Compound 1 was administered twice daily (BID) at dose levels of 100 mg, 200 mg, and 300 mg, and once daily (QD) at a dose level of 400 mg. Each dosing cohort was comprised of 9 subjects treated with Compound 1 and 3 subjects treated with placebo. Testosterone and estradiol levels were assessed prior to dosing (baseline), and then on days 8, 14 and 17.

[2] = target: T1, PKR in mouse red blood cells (Mus musculus, UniProt P53657); assay: PKR activation in mouse red blood cells; assay type: cell-based; conditions: mouse RBCs
T1 construct: endogenous in cells; host or cells: mouse RBCs isolated fresh from whole blood
Procedure: The activation of wt-PKR by Compound 1 in mature human erythrocytes ex vivo was evaluated in purified RBCs purchased from Research Blood Components. Cells treated with Compound 1 for 3 hr in glucose-containing media were washed, lysed, and assayed using a Biovision Pyruvate Kinase Assay (K709-100). The assay was repeated multiple times to account for donor-to-donor variability and the relatively narrow dynamic range.
Mouse RBCs were isolated fresh from whole blood using a Ficoll gradient and assayed with methods similar to those used in the human RBCs assays.

[3] = Phase 1, SCD patients single 700 mg dose: safety; assay type: in vivo, human
Procedure: (§1) In this study, SAD/MAD cohorts are randomized (3 to 1) to receive Compound 1 or placebo (P). Compound 1 was evaluated first in 4 healthy SAD cohorts and 4 healthy MAD (14-day dosing period) cohorts. Based on the safety, and PK/PD profile from HS, Compound 1 is then evaluated in 1 SCD SAD cohort and 2 SCD MAD cohorts. Specifically, based on the safety and pharmacokinetic/pharmacodynamics (PK/PD) profile in healthy volunteer studies, Compound 1 is evaluated in patients (pts) with SCD, first in a single dose (SD or SAD) cohort and then in multiple-dose (MD or MAD) cohorts (14-day and 12-week). Safety assessments include AEs, vital signs, ECGs and laboratory parameters. PK/PD blood sampling was performed on Day 1 (SAD/MAD) and Day 14 (MAD) and up to 72 h after the last dose and at the end-of-study visit. PD parameters included 2,3-DPG, ATP, and p50 in all cohorts with additional PD studies (including oxygen scan) performed only in the SCD cohorts. PD parameters included 2,3-DPG, ATP, p50, RBC deformability with controlled deoxygenation and reoxygenation (Lorrca® oxygen scan) and varying osmolality (Lorrca® osmoscan)). To maintain study blind, pt identifiers were removed when needed.
In the SD cohort, 7 pts (2 males, 5 females, all HbSS) received 700 mg Compound 1 (n=5) or placebo (n=2).
All SCD patients who received a single 700 mg dose of Compound 1 or placebo were monitored for adverse events for 7 days. The incidence of treatment emergent adverse events (TEAEs) in SCD patients receiving Compound 1 (700 mg) or placebo are reported in Table 23. Six TEAEs were reported in 4 patients; all TEAEs were grade 1 and transient. Specifically, six TEAEs were reported in 4 of 7 ([…]) patients, including 3 TEAEs (arthralgia, headache, palpitations) in 2 of 5 ([…]) pts receiving Compound 1 and 3 TEAEs (back pain, myalgia, pruritis) in 2 of 2 (100%) pts receiving placebo; all TEAEs were grade 1 and transient. […] One possibly related TEAE (palpitations) occurred about 8 hours post dose. No other symptoms were observed, and the palpitations resolved in <1 minute. […] The single 700 mg dose of Compound 1 was considered tolerable, and the first multiple dose SCD cohort (“Dose 1” in FIG. 28) was initiated.

[4] = system: 2,3-DPG, ATP, p50, deformability of sickle RBCs; assay: Phase 1, SCD patients single 700 mg dose: pharmacodynamics; assay type: in vivo, human
Procedure: as §1
A potential exposure to the maximum PD response dose range to evaluate in patients with SCD was identified. Based on the safety and PK/PD profile in healthy volunteer studies, a 700 mg single dose was evaluated in patients with SCD (n=7). A single 700 mg dose of Compound 1 was selected to evaluate in patients with SCD to enable daily dosing cohorts at lower exposures.
The effects of a single dose of Compound 1 (700 mg) versus placebo on oxygen scan, oxygen affinity (p50), and osmoscan in SCD patients were evaluated. At the Point of Sickling (POS or PoS), polymerization of de-oxy HbS can affect the deformability of the RBCs and the elongation Index starts to decrease. The EImin refers to the lowest level of RBC deformability in the Oxygenscan. The lower the EImin the lower the deformability of the RBC. […] As shown in FIG. 53 and Table 25 (Oxygen affinity curve), Compound 1 increased O2 affinity (decreased p50) in all participants treated. […] These effects were transient, returning to baseline 3 to 7 days after the single dose of Compound 1.
The oxygen affinity of RBCs was measured in patient blood using a Hemox Analyzer (TCS Scientific Corp.), an automatic system for the recording of blood oxygen equilibrium curves and related phenomena. The Hemox Analyzer was used according to standard methods to determine the hemoglobin-oxygen dissociation curves for whole blood samples, numerically characterized by the p50, the partial pressure of oxygen at which hemoglobin is 50% saturated. […] In the case of hemoglobin, the wavelength of maximum absorbance is the measuring wavelength (560 nm), while the reference wavelength is at the isosbestic point at (570 nm). The absorbance at the isosbestic point remains unchanged during the deoxygenation process of the hemoglobin, however the measuring wavelength (560 nm) undergoes a drastic change in absorbance. This change is detected by the electronic circuitry and is plotted as the log/ratio change between the two wavelengths. The log/ratio measurement at 560 nm and 570 nm is utilized to measure the optical absorbance change during the deoxygenation of the hemoglobin. Simultaneously with the measurement of the hemoglobin absorbance, the oxygen concentration is directly measured in the sample using a Clark electrode. […]

[5] = SCD patients, 24 hours after single 700-mg dose

T1 sequence (P53657 whole entry): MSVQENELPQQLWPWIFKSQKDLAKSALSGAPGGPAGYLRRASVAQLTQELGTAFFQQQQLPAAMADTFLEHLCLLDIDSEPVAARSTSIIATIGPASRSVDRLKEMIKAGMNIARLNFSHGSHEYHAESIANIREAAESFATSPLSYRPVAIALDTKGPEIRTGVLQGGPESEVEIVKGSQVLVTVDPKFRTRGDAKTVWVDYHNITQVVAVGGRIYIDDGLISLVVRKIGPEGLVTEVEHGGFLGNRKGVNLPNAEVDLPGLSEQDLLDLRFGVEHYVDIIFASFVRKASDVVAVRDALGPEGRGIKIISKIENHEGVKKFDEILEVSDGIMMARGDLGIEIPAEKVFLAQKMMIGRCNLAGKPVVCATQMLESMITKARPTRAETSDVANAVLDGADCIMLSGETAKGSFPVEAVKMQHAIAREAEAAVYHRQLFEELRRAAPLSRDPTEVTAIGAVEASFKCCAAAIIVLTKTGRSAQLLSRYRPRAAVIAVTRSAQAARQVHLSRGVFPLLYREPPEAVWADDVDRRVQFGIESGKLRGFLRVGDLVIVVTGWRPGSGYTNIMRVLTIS

Structure (SMILES): O=C([C@H](CO)c1ccccc1)N1CC2=C(C1)CN(S(=O)(=O)c1cnc3c(c1)OCCO3)C2 (single isomer, unassigned) [Compound 1]
- change from baseline for testosterone and estradiol levels [1]: No effect on testosterone or estradiol levels; also recorded: no statistically significant changes
- Max-Min (%) ([2]; individual replicates 1-2): <50% and <100%
- Max-Min (%), mean ([2]; mean): <100%
- serious adverse events / TEAEs leading to withdrawal ([3]; SCD single dose cohort): No serious adverse events (SAEs) or TEAEs leading to pt withdrawal
- Any TEAE, n (%) ([3]; SCD, 700 mg single dose, N = 5): 2 (40) n (%)
- TEAE related to study drug, n (%) ([3]; SCD, 700 mg single dose, N = 5): 1 (20) n (%)
- pts with TEAEs (2 of 5) ([3]; SCD, 700 mg single dose, 3 TEAEs (arthralgia, headache, palpitations), grade 1): 40%
- decrease of 2,3-DPG blood concentrations [4, 5]: 26%
- increase of ATP blood concentrations [4, 5]: 30%
- Hb increase compared with placebo ([4]; SCD, 24 h after a single dose): ~0.9 g/dL
- POS (Oxygenscan), post-dose (24 hours) ([4]; SCD, single 700 mg, median (range), pre-dose 35.4 (27.3, 38.8)): 24.0 (17.9, 31.8)
- Ohyper (Osmoscan), post-dose (24 hours) ([4]; SCD, single 700 mg, median (range), pre-dose 380 (371, 399)): 400 (371, 412)
